# Experimental data from patent publication US20080261994A1, “CYCLOPROPANE COMPOUNDS AND PHARMACEUTICAL USE THEREOF” (Japan Tobacco Inc., priority 2003, published 2008).
# Like-named read-outs stand apart in the source and are kept apart here.
# Assays:
# Assay type in all cases: biochemical
# MMP-1 = molecular target: T1, MMP-1 (Homo sapiens, UniProt P03956); assay: MMP-1 inhibitory action (Type I collagen Activity Measurement kit, FITC-labeled collagen type I)
# T1 sequence (P03956 100-469): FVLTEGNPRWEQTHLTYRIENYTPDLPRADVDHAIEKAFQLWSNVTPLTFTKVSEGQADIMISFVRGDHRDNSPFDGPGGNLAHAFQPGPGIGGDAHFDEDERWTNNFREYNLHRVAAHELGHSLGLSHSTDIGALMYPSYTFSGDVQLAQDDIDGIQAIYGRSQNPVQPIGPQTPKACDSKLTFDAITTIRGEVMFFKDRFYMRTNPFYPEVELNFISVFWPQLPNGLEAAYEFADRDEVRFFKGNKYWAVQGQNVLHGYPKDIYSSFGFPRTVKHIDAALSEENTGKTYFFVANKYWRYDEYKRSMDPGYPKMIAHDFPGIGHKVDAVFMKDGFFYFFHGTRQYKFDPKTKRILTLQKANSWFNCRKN
# Recombinant Human MMP-13 = molecular target: T2, Recombinant Human MMP-13 (Homo sapiens, UniProt P45452); assay: MMP-13 inhibitory activity (MMP-13 specific fluorescent substrate with quencher)
# T2 construct: purchased R&D systems 511-MM
# Outline: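 Recombinant human MMP-13 with test compound, reaction started with quenched fluorogenic peptide 7-MCA-Pro-CHA-Gly-NVal-His-Ala-DPA in Tris-HCl buffer, 1 h at 25 °C, stopped with acetic acid. Fluorescence at Ex 325/Em 405 nm; % inhibition versus enzyme-free and inhibitor-free wells, reported as IC50 (μM).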
# aggrecanase-1 = molecular target: T3, aggrecanase-1 (Homo sapiens, UniProt O75173); assay: Aggrecanase-1 inhibitory action (Particle Assay, GAG release from aggrecan-containing polyacrylamide particles)
# T3 sequence (O75173 213-837): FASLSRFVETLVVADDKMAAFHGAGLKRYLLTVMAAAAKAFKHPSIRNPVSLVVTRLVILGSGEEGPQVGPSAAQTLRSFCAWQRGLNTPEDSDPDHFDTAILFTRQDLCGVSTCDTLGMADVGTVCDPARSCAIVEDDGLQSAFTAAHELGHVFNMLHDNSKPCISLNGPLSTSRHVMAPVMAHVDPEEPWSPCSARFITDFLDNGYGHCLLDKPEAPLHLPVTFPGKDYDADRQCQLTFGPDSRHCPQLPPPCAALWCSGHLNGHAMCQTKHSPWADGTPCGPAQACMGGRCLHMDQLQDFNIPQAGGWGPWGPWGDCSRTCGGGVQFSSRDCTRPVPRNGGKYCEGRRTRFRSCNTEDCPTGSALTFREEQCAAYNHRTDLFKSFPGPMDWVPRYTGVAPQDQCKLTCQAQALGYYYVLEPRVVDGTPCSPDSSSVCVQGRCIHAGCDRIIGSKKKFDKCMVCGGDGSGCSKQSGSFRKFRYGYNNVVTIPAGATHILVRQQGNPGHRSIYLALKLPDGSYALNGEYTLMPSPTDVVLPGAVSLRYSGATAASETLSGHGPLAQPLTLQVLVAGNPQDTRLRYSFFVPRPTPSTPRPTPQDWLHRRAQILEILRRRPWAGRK
# Outline: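 Enzyme and compound incubated with aggrecan-containing polyacrylamide particles in Tris-HCl buffer at 37° C for 15 h. Released GAG in supernatant measured with 1,9-dimethylmethylene blue at 595 nm against chondroitin sulfate standard; % inhibition from enzyme-free and inhibitor-free wells, reported as TC50 (μM).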
# [1] = MMP-1 inhibitory action, FITC-labeled collagen type I, 37° C. for 3 hr, read-out: IC50 MMP1 (Experimental Example 2)
# [2] = Recombinant Human MMP-13, fluorescent substrate, 25° C. for 1 h, read-out: IC50 MMP13 (Experimental Example 3)
# [3] = aggrecanase-1 inhibitory action, read-out: IC50 AG1 (Experimental Example 1)
# [4] = Experimental Example 2, read-out: IC50 MMP1
# [5] = Experimental Example 3, read-out: IC50 MMP13
# [6] = Experimental Example 1, read-out: IC50 AG1
IC50 (MMP-1; [1]),IC50 (Recombinant Human MMP-13; [2]),IC50 (aggrecanase-1; [3]),IC50 (MMP-1; [4]),IC50 (Recombinant Human MMP-13; [5]),IC50 (aggrecanase-1; [6]),SMILES
≥ 10000 nM,< 1000 nM,< 1000 nM,–,–,–,O=C(O)[C@@]1(NS(=O)(=O)c2ccc3c(c2)Cc2cc(F)ccc2-3)C[C@H]1c1ccccc1 [Example 2-244]
≥ 10000 nM,< 1000 nM,≥ 1000 nM,–,–,–,O=C(O)C1(NS(=O)(=O)c2ccc(-c3ccc(Cl)cc3)s2)CC1c1ccc(N2CCOCC2)cc1 (stereo not drawn) [Example 2-245]
≥ 10000 nM,< 1000 nM,≥ 1000 nM,–,–,–,CN1CCN(c2ccc(C3CC3(NS(=O)(=O)c3ccc(-c4ccc(Cl)cc4)s3)C(=O)O)cc2)CC1 (stereo not drawn) [Example 2-246]
≥ 10000 nM,≥ 10000 nM,≥ 10000 nM,–,–,–,CN1CCN(c2ccc(C3CC3(NS(=O)(=O)c3ccc(-c4ccc(Cl)cc4)s3)C(=O)O)cc2)CC1 (stereo not drawn) [Example 2-247]
≥ 1000 nM,< 1000 nM,< 100 nM,–,–,–,O=C(O)C1(NS(=O)(=O)c2ccc(-c3cc(C(F)(F)F)on3)s2)CC1(CCCO)c1ccccc1 (stereo not drawn) [Example 2-248]
≥ 10000 nM,< 1000 nM,< 100 nM,–,–,–,O=C(O)C1(NS(=O)(=O)c2ccc(-c3ccc(Cl)cc3)s2)CC1(CCCN1CCOCC1)c1ccccc1 (stereo not drawn) [Example 2-249]
≥ 1000 nM,< 100 nM,< 1000 nM,–,–,–,O=C(Nc1cccc(C2CC2(NS(=O)(=O)c2ccc(-c3cc(C(F)(F)F)on3)s2)C(=O)O)c1)N1CCOCC1 (stereo not drawn) [Example 2-250]
≥ 10000 nM,< 1000 nM,< 1000 nM,–,–,–,O=C(Nc1cccc(C2CC2(NS(=O)(=O)c2ccc(-c3ccc(Cl)cc3)s2)C(=O)O)c1)N1CCOCC1 (stereo not drawn) [Example 2-251]
≥ 1000 nM,< 1000 nM,< 100 nM,–,–,–,O=C(O)C1(NS(=O)(=O)c2ccc(-c3cc(C(F)(F)F)on3)s2)CC1c1ccccc1CCCO (stereo not drawn) [Example 2-252]
≥ 1000 nM,< 100 nM,< 100 nM,–,–,–,O=C(OCCCc1ccccc1C1CC1(NS(=O)(=O)c1ccc(-c2cc(C(F)(F)F)on2)s1)C(=O)O)N1CCOCC1 (stereo not drawn) [Example 2-253]
≥ 1000 nM,< 100 nM,< 100 nM,–,–,–,O=C(OCCCc1ccccc1C1CC1(NS(=O)(=O)c1ccc(-c2cc(C(F)(F)F)on2)s1)C(=O)O)N1CCC[C@H]1CO (stereo partly drawn) [Example 2-254]
≥ 1000 nM,< 100 nM,< 100 nM,–,–,–,O=C(OCCCc1ccccc1C1CC1(NS(=O)(=O)c1ccc(-c2cc(C(F)(F)F)on2)s1)C(=O)O)N1CC[C@@H](O)C1 (stereo partly drawn) [Example 2-255]
≥ 10000 nM,≥ 10000 nM,≥ 1000 nM,–,–,–,CC1CCN(c2ccc(S(=O)(=O)N[C@@]3(C(=O)O)C[C@@H]3c3ccccc3)s2)CC1 [Example 2-256]
≥ 1000 nM,< 1000 nM,< 100 nM,–,–,–,O=C(O)C1(NS(=O)(=O)c2ccc(-c3cc(C(F)(F)F)on3)s2)CC1c1cccc(N2CCOCC2)c1 (stereo not drawn) [Example 2-257]
≥ 1000 nM,< 1000 nM,< 1000 nM,–,–,–,O=C(c1cccc(C2CC2(NS(=O)(=O)c2ccc(-c3cc(C(F)(F)F)on3)s2)C(=O)O)c1)N1CCOCC1 (stereo not drawn) [Example 2-258]
≥ 1000 nM,< 100 nM,< 100 nM,–,–,–,O=C(NCCc1cccc(C2CC2(NS(=O)(=O)c2ccc(-c3cc(C(F)(F)F)on3)s2)C(=O)O)c1)N1CCOCC1 (stereo not drawn) [Example 2-259]
≥ 1000 nM,< 100 nM,< 1000 nM,–,–,–,O=C(CN1CCOCC1)Nc1cccc(C2CC2(NS(=O)(=O)c2ccc(-c3cc(C(F)(F)F)on3)s2)C(=O)O)c1 (stereo not drawn) [Example 2-260]
≥ 10000 nM,< 1000 nM,< 1000 nM,–,–,–,O=C(CN1CCOCC1)Nc1cccc(C2CC2(NS(=O)(=O)c2ccc(-c3ccc(Cl)cc3)s2)C(=O)O)c1 (stereo not drawn) [Example 2-261]
< 1000 nM,< 100 nM,< 100 nM,–,–,–,CC1[C@H](c2ccccc2)[C@]1(NS(=O)(=O)c1ccc(-c2ccc(Cl)cc2)s1)C(=O)O (stereo partly drawn) [Example 2-262]

IC50 (MMP-1; [1]),IC50 (Recombinant Human MMP-13; [2]),IC50 (aggrecanase-1; [3]),IC50 (MMP-1; [4]),IC50 (Recombinant Human MMP-13; [5]),IC50 (aggrecanase-1; [6]),SMILES
≥ 1000 nM,< 1000 nM,< 100 nM,–,–,–,O=C(O)C1(NS(=O)(=O)c2ccc(-c3ccc(Cl)cc3)s2)CC1(CCO)c1ccccc1 (stereo not drawn) [Example 2-263]
≥ 1000 nM,< 100 nM,< 100 nM,–,–,–,CC(=O)OCCCC1(c2ccccc2)CC1(NS(=O)(=O)c1ccc(-c2cc(C(F)(F)F)on2)s1)C(=O)O (stereo not drawn) [Example 2-264]
≥ 10000 nM,< 1000 nM,< 1000 nM,–,–,–,NCc1ccc(C2CC2(NS(=O)(=O)c2ccc(-c3ccc(Cl)cc3)s2)C(=O)O)cc1 (stereo not drawn) [Example 2-265]
≥ 1000 nM,< 1000 nM,< 1000 nM,–,–,–,CN(C)C(=O)c1ccc(C2CC2(NS(=O)(=O)c2ccc(-c3cc(C(F)(F)F)on3)s2)C(=O)O)cc1 (stereo not drawn) [Example 2-266]
–,–,–,≥ 1000 nM,< 100 nM,< 100 nM,O=C(O)C1(NS(=O)(=O)c2ccc(-c3cc(C(F)(F)F)on3)s2)CC1c1cccc(NS(=O)(=O)N2CCOCC2)c1 (stereo not drawn) [Example 2-267]
–,–,–,≥ 1000 nM,< 100 nM,< 100 nM,O=C(O)C1(NS(=O)(=O)c2ccc(-c3cc(C(F)(F)F)on3)s2)CC1c1cccc(CCO)c1 (stereo not drawn) [Example 2-268]
–,–,–,≥ 1000 nM,< 100 nM,< 100 nM,O=C(O)C1(NS(=O)(=O)c2ccc(-c3ccc(Cl)cc3)s2)CC1c1cccc(NS(=O)(=O)N2CCOCC2)c1 (stereo not drawn) [Example 2-269]
–,–,–,≥ 1000 nM,< 100 nM,< 100 nM,NC(=O)OCCc1cccc(C2CC2(NS(=O)(=O)c2ccc(-c3cc(C(F)(F)F)on3)s2)C(=O)O)c1 (stereo not drawn) [Example 2-270]
–,–,–,≥ 10000 nM,< 1000 nM,≥ 1000 nM,COCCN(C)C(=O)c1ccc(C2(CCCOC(C)=O)CC2(NS(=O)(=O)c2ccc(-c3cc(C(F)(F)F)on3)s2)C(=O)O)cc1 (stereo not drawn) [Example 2-271]
–,–,–,≥ 10000 nM,< 100 nM,< 100 nM,CC(=O)NCCCC1(c2ccccc2)CC1(NS(=O)(=O)c1ccc(-c2ccc(Cl)cc2)s1)C(=O)O (stereo not drawn) [Example 2-272]
–,–,–,< 1000 nM,< 100 nM,< 100 nM,O=C(O)C1(NS(=O)(=O)c2ccc(-c3ccc(Cl)cc3)s2)CC1(CCCn1cccn1)c1ccccc1 (stereo not drawn) [Example 2-273]
–,–,–,≥ 10000 nM,≥ 1000 nM,< 100 nM,CC1(C)C(c2ccccc2)C1(NS(=O)(=O)c1ccc(-c2ccc(Cl)cc2)s1)C(=O)O (stereo not drawn) [Example 2-274]
–,–,–,≥ 1000 nM,< 1000 nM,< 100 nM,CC1(C)C(c2ccccc2)C1(NS(=O)(=O)c1ccc(-c2cc(C(F)(F)F)on2)s1)C(=O)O (stereo not drawn) [Example 2-275]
–,–,–,≥ 1000 nM,< 100 nM,< 1000 nM,O=C1CCCN1c1cccc(C2CC2(NS(=O)(=O)c2ccc(-c3cc(C(F)(F)F)on3)s2)C(=O)O)c1 (stereo not drawn) [Example 2-276]
–,–,–,≥ 1000 nM,< 1000 nM,< 1000 nM,O=C(O)C1(NS(=O)(=O)c2ccc(-c3cc(C(F)(F)F)on3)s2)C2Cc3ccccc3C21 (stereo not drawn) [Example 2-277]
–,–,–,< 1000 nM,< 100 nM,< 100 nM,NC(=O)CCc1ccc([C@H]2C[C@@]2(NS(=O)(=O)c2ccc(-c3cc(C(F)(F)F)on3)s2)C(=O)O)cc1 [Example 2-278]
–,–,–,< 1000 nM,< 100 nM,< 100 nM,O=C(CCc1ccc([C@H]2C[C@@]2(NS(=O)(=O)c2ccc(-c3cc(C(F)(F)F)on3)s2)C(=O)O)cc1)N1CCOCC1 [Example 2-279]
–,–,–,≥ 10000 nM,< 100 nM,< 1000 nM,CN1CCN(C(=O)CCc2ccc([C@H]3C[C@@]3(NS(=O)(=O)c3ccc(-c4cc(C(F)(F)F)on4)s3)C(=O)O)cc2)CC1 [Example 2-280]
–,–,–,< 1000 nM,< 100 nM,< 100 nM,CNC(=O)CCc1ccc([C@H]2C[C@@]2(NS(=O)(=O)c2ccc(-c3cc(C(F)(F)F)on3)s2)C(=O)O)cc1 [Example 2-281]
